# Results published in US10058559B2, “Treatment or prevention of an intestinal disease or disorder” (The United States of America, as represented by the …, priority 2014, dated 2018).
# Read-outs that look alike come from different tables or passages of the source.
# What was measured:
# [1] = in vivo; cited from earlier work
# 187 kinases = settings: cited from earlier work
# [2] = test system: panel of 460 other kinases; settings: cited from earlier work
# [3] = test system: LRRK2 Ser910 and Ser935 phosphorylation; settings: in vitro; cited from earlier work
# [4] = test system: LRRK2 Ser910 and Ser935 phosphorylation; settings: in peripheral tissues in vivo; cited from earlier work
# LRRK2 kinase = LRRK2 kinase (Homo sapiens, UniProt Q5S007); settings: previously reported; cited from earlier work
# [5] = test system: panel of 136 other kinases; settings: cited from earlier work
# [6] = cited from earlier work
# LRRK2 phosphorylation = settings: mice, 30 mg/kg to 50 mg/kg i.p., in vivo; cited from earlier work
# BMDC from LRRK2 Tg mice [7] = assay: ZymD-induced cytokine production in BMDC from LRRK2 Tg mice; assay type: cell-based; settings: for ZymD-induced cytokine production: FIG. 5a and 5b
# Excerpt: Since several of the candidate susceptibility genes in IBD (e.g., NOD2 and […]) are likely to be causing disease via an abnormal innate immune response, it was reasoned that increased LRRK2 expression was leading to an enhanced inflammatory response initiated by a Pathogen Associated Molecular Patterns (PAMPs) in the gastrointestinal environment.
# Furthermore, in rat microglia, LRRK2 inhibitors block TLR4-induced TNF-a and iNOS production. Based on these findings, whether LRRK2 inhibition can serve as a therapeutic target in IBD was investigated. First, ZymD-induced cytokine production in BMDC from LRRK2 Tg mice in the presence or absence of two LRRK2 inhibitors, LRRK2-IN-1 and CZC54252.
# [8] = test system: human BMDC derived from Crohn's disease peripheral blood; assay: ZymD-induced TNF-alpha production in human BMDC derived from Crohn's disease peripheral blood; assay type: cell-based; settings: human cells
# BMDC from LRRK2 Tg mice [9] = assay: autophagy (Western blotting, LC3 puncta) in M. leprae- and ZymD-stimulated BMDC from LRRK2 Tg mice; assay type: cell-based
# DSS-colitis = assay: DSS (dextran-sulfate)-colitis in mice; assay type: in vivo
# Excerpt: In initial studies to evaluate global LRRK2 function in bowel inflammation, LRRK2-Tg mice (as well as LRRK2 KO mice) were subjected to DSS (dextran-sulfate)-colitis. […] In contrast, DSS-colitis in LRRK2 KO mice was slightly less severe than in control mice (FIG. 2a and FIG. 2b). This latter result differs from that reported by Liu et al. who found increased severity of DSS colitis in LRRK2 KO mice. This discrepancy is likely due to differences in the control mice used in the two studies: the experiments described herein used control mice that had been back-crossed for 9 generations, were housed in the same facility and exposed to the same microbiota. These studies of DSS-colitis thus indicate that increased expression of LRRK2 leads to an increased inflammatory response in experimental colitis.
# [10] = ZymD-induced, BMDC from LRRK2 Tg mice
# Chain of LRRK2 kinase (Q5S007 whole entry, species assumed): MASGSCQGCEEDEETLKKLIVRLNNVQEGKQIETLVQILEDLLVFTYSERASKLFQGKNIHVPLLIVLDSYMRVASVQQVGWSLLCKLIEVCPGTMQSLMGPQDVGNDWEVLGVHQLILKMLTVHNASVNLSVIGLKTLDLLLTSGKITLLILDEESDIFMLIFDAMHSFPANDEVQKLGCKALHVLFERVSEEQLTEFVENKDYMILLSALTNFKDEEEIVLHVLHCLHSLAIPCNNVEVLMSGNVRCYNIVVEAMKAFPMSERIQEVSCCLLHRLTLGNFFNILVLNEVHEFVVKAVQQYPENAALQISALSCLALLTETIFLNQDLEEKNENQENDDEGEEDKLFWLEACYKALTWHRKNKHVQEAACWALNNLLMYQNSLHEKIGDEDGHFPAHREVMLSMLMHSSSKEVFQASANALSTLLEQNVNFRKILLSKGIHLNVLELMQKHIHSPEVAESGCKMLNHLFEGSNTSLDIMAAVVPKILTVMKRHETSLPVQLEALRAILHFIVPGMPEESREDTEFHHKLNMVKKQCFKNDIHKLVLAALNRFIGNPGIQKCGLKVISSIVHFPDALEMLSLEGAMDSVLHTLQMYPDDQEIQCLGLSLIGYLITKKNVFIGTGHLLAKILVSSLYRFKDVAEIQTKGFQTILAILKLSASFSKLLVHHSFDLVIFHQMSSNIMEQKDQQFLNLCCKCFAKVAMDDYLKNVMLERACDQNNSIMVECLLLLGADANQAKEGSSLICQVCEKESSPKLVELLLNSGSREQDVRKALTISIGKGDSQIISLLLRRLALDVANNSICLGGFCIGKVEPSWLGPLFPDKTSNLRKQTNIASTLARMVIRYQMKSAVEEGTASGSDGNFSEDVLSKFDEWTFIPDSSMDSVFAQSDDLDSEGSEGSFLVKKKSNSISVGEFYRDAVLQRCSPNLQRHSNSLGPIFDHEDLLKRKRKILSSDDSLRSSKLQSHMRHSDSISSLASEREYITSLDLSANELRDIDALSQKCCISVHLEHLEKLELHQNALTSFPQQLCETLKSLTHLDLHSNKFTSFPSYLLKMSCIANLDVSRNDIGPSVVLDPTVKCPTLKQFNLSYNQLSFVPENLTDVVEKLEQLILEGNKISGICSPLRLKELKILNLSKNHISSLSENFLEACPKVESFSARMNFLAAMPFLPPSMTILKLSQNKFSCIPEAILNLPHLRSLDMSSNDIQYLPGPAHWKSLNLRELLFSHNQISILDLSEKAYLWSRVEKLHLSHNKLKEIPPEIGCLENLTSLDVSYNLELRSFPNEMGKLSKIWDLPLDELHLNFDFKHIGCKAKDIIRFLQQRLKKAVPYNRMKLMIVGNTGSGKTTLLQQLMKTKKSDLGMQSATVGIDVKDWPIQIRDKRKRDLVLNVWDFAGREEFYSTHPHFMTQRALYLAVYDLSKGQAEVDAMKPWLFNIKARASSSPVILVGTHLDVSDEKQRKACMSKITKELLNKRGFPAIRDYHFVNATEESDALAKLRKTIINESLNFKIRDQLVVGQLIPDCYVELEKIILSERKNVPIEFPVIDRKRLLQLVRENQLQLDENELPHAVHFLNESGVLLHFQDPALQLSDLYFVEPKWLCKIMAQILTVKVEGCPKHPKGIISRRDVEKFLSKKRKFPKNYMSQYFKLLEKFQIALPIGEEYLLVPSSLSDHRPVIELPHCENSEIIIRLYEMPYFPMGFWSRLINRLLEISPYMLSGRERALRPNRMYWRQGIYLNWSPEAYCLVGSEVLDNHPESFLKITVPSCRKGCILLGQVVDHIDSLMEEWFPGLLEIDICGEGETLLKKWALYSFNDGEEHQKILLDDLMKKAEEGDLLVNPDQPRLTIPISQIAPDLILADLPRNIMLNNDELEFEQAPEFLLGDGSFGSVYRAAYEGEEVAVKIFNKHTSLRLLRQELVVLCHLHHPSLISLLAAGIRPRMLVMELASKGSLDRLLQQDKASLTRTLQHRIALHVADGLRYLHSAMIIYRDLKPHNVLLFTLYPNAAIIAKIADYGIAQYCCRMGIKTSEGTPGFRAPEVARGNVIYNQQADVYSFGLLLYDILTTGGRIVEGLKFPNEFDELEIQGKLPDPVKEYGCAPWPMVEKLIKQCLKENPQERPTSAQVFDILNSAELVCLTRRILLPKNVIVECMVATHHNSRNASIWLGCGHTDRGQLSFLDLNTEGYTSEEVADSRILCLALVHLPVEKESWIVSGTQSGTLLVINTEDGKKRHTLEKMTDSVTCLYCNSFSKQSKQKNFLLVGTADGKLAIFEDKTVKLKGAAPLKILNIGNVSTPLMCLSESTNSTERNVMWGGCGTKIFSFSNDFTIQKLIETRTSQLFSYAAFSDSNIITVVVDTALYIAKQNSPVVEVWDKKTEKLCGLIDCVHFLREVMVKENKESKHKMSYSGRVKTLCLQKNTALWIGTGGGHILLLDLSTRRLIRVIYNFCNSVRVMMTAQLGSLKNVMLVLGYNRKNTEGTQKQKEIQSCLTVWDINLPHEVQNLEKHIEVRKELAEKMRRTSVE
compound,measurement,setting,value
"CCNc1nc(Nc2cc(F)c(C(=O)N3CCOCC3)cc2OC)ncc1C(F)(F)F [GNE-7915, (4-((4-(ethylamino)-5-(trifluoromethyl)pyrimidin-2-yl)amino)-2-fluoro-5-methoxyphenyl)(morpholino)methanone]",brain penetration,[1],brain-penetrant
same,selectivity (kinases),187 kinases,1/187
"O=C(Nc1cccnc1)c1cc(-c2ccnc(F)c2)ccc1OCc1ccccc1 [GSK2578215A, 5-(2-Fluoro-4-pyridinyl)-2-(phenylmethoxy)-N-3-pyridinylbenzamide]",selectivity for LRRK2 against a panel of 460 other kinases,[2],displays selectivity for LRRK2
same,Ser910 and Ser935 phosphorylation,[3],blocks
same,Ser910 and Ser935 phosphorylation,[4],blocks
same,brain penetration,[1],brain penetrant
O=C1Nc2ccc(I)cc2/C1=C/c1cc(Br)c(O)c(Br)c1 [GW5074],inhibitory activities of LRRK2 kinase,LRRK2 kinase,inhibitory activities
O=S(=O)(NCCNC/C=C/c1ccc(Br)cc1)c1cccc2cnccc12 [H-89],inhibitory activities of LRRK2 kinase,LRRK2 kinase,inhibitory activities
"CNc1nc(Nc2ccc(C(=O)N3CCOCC3)cc2OC)ncc1Cl [HG-10-102-01, (4-(5-Chloro-4-(methylamino)pyrimidin-2-ylamino)-3-methoxyphenyl)(morpholino)methanone]",activity toward a panel of 136 other kinases,[5],little activity
same,cell permeability,[6],cell-permeable
same,blood-brain-barrier crossing for LRRK2 phosphorylation inhibition,LRRK2 phosphorylation,can cross the blood-brain-barrier
O=C1Nc2ccccc2/C1=C1/Nc2ccccc2/C1=N\O [Indirubin-3-monoxime],inhibitory activities of LRRK2 kinase,LRRK2 kinase,inhibitory activities
"COc1cc(C(=O)N2CCC(N3CCN(C)CC3)CC2)ccc1Nc1ncc2c(n1)N(C)c1ccccc1C(=O)N2C [LRRK2-IN-1, 5,11-Dihydro-2-[[2-methoxy-4-[[4-(4-methyl-1-piperazinyl)-1-piperidinyl]carbonyl]phenyl]amino]-5,11-dimethyl-6H-pyrimido[4,5-b][1,4]benzodiazepin-6-one]",ZymD-induced cytokine production,BMDC from LRRK2 Tg mice [7]; BMDC from LRRK2 Tg mice,greatly reduced
same,"inhibition of TNF-alpha, dose dependence",BMDC from LRRK2 Tg mice [7]; [10],dose dependent
same,"production of pro-inflammatory cytokine mRNAs (TNF-alpha, TL1A, IL-23p19, IL-6 and IL-1beta mRNAs)",BMDC from LRRK2 Tg mice [7]; [10],suppressed
same,concentration required to suppress cytokine production,[8],5 µM
same,autophagy (Western blotting and quantitation of LC3 puncta),BMDC from LRRK2 Tg mice [9],reversed inhibition of autophagy
same,DSS-colitis severity,DSS-colitis; LRRK2-Tg mice,amelioration
same,DSS-colitis severity,DSS-colitis; wild-type mice (so in the source),ameliorate
COc1cc(N2CCC(N3CCN(C)CC3)CC2)ccc1Nc1ncc(Cl)c(Nc2ccccc2S(=O)(=O)C(C)C)n1 [TAE684],inhibitory activities of LRRK2 kinase,LRRK2 kinase,inhibitory activities
N-[-[[5-Chloro-2-[[2-methoxy-4-(4-morpholinyl)phenyl]amino]-4-pyrimidinyl]amino]phenyl]methanesulfonamide hydrochloride [CZC54252],"inhibition of TNF-alpha, dose dependence",BMDC from LRRK2 Tg mice [7],dose dependent
same,ZymD-induced cytokine production,BMDC from LRRK2 Tg mice [7]; BMDC from LRRK2 Tg mice,greatly reduced
same,"production of pro-inflammatory cytokine mRNAs (TNF-alpha, TL1A, IL-23p19, IL-6 and IL-1beta mRNAs)",BMDC from LRRK2 Tg mice [7]; [10],suppressed
